Laboratory results reported in article PMC7041978 (The Journal of Veterinary Medical Science, 2020).
Entries after “also recorded” stand apart in the source; their conditions may differ.

Experiments:
Toxoplasma gondii = settings: cited from earlier work
[1] = tested on: human foreskin fibroblasts (HFF); assay: Host cell cytotoxicity assay; format: cell-based; settings: for Host cell inhibition (%): 10 µM compounds, HFF cells, 48 hr; for IC50: Homo sapiens, HFF, 48 h, read-out: IC50 for host cell
[2] = tested on: Toxoplasma gondii RH-2F strain; assay: Parasite growth assay; format: cell-based; settings: for IC50 / inhibition at 10 µM: Toxoplasma gondii, 48 h; for IC50: read-out: IC50 for parasite growth; for inhibition at 10 µM: HFF, read-out: Parasite inhibition (%)
[3] = tested on: Toxoplasma gondii RH-2F intracellular tachyzoites; assay: Intracellular parasite growth assay; format: cell-based; settings: added after 2-hr invasion, 48 hr

Compound | Host cell inhibition (%) [1] [%] | IC50 [1] [µM] | IC50 [2] [µM] | inhibition at 10 µM [2] [%] | Inhibition of intracellular parasite growth ([3]; 10 µM) | further results
Nc1ccc(S(=O)(=O)Nc2ncccn2)cc1 [sulphadiazine] |  |  |  |  |  | Selectivity indexes (SI) (Toxoplasma gondii): 0.29
CC(C)=CC[C@H](O)C1=CC(=O)c2c(O)ccc(O)c2C1=O [Alkannin] | −0.3 | 5.4 | 1.3 | 86.9 |  | Host cell inhibition (%) ([1]; listed as alkannin): did not kill the host cells
CCc1nc(N)nc(N)c1-c1ccc(Cl)cc1 [Pyrimethamine, reference compound] |  |  |  |  | inhibited the intracellular growth | Selectivity indexes (SI) (Toxoplasma gondii): 0.21
O=c1cc(-c2ccc(O)c(O)c2)oc2cc(O)cc(O)c12 [Luteolin] |  | > 50 | 5.7 | 74.3 | effectively inhibited the intracellular parasite growth | 
O=c1cc(-c2ccccc2)oc2cc(O)c(O)c(O)c12 [Baicalein] | 3.3 | > 50 | 5 | 80.1 | effectively inhibited the intracellular parasite growth | Host cell inhibition (%) ([1]; listed as baicalein): did not kill the host cells; Inhibition of intracellular parasite growth ([3]; 10 µM, listed as baicalein): effectively inhibited intracellular parasite growth
CC(C)=CC[C@@H](O)C1=CC(=O)c2c(O)ccc(O)c2C1=O [Shikonin] | 43.4 | 17.8 | 1.4 | 87.3 |  | Host cell inhibition (%) ([1]; listed as shikonin): did not kill the host cells; also recorded: killed some of the host cells
dextran sulfate [reference compound] |  |  |  |  |  | Inhibition of intracellular parasite growth ([3]; 25 mg/ml): hardly affected the intracellular parasites
COc1ccc2cc3[n+](cc2c1OC)CCc1cc2c(cc1-3)OCO2 [Berberine Chloride] | −3.0 | 2.8 | 2.2 | 85.5 |  | Host cell inhibition (%) ([1]; listed as berberine chloride): did not kill the host cells
C[C@H]1CC[C@@]2(OC1)O[C@H]1C[C@H]3[C@@H]4CC[C@@H]5C[C@@H](O[C@@H]6O[C@H](CO)[C@H](O)[C@H](O)[C@H]6O[C@@H]6O[C@H](CO)[C@@H](O)[C@H](O)[C@H]6O)CC[C@]5(C)[C@H]4CC[C@]3(C)[C@H]1[C@@H]2C [Timosaponin A-III] | 98.3 |  |  | 81.4 |  | Host cell inhibition (%) ([1]; listed as timosaponin A-III): killed almost all of the host cells
c1c2c(cc3c1OCO3)-c1cc3ccc4c(c3c[n+]1CC2)OCO4 [Coptisine Chloride] | 6.4 | > 50 | 2.1 | 73.3 |  | Host cell inhibition (%) ([1]; listed as coptisine chloride): did not kill the host cells; Dose dependence of parasite growth inhibition ([2]; high concentrations, data not shown): did not inhibit parasite growth in a dose-dependent manner
